The values that follow come from patent publication US7872036B2, “3-triazolylphenyl sulfide derivative and insecticide, miticide and nematicide containing it as an active ingredient” (Kumiai Chemical Industry Co., Ltd., priority 2004, dated 2011).

Test [1] has as its system southern root-knot nematodes. The experiment in a line: Nemastatic test on southern root-knot nematodes. To be noted: diluted solution 20 ppm mixed 1:1 with suspension of second stage larvae, 25° C., 5 days. The format is in vivo, Meloidogyne sp. How it is done: Compounds of the present invention (5 parts) and Tween 20 (tradename for polyoxyethylene sorbitan monolaurate) (1 part) as a spreader were dissolved n N,N-dimethylformamide (94 parts) to prepare 5% emulsifiable concentrates of the compounds of the present invention. Distilled water was added to the emulsifiable concentrates to prepare diluted solutions having a concentration of the compounds of the present invention of 20 ppm. 0.5 ml of the diluted solutions and 0.5 ml of water suspensions containing 100 second stage larvae of southern root-knot nematodes were mixed, and the mixture were placed in a thermostatic chamber at 25° C. for 5 days, and the survivors were counted for calculation of the nemastatic degree by using Equation 3. The test was carried out by two series system.

In test [2] the test system is brown planthoppers. The test can be described thus: Insecticidal test on brown planthoppers. To be noted: active ingredient 500 ppm, germinating rice immersed, 4th-instar larvae, 25° C., 6 days. The format is in vivo, Nilaparvata lugens. How it is done: Wettable powders were prepared in accordance with Formulation Example 2 and diluted with water to an active ingredient concentration of 500 ppm. Germinating rice was immersed in the resulting solutions and put in a plastic cup with a capacity of 60 ml. Ten 4th-instar larvae of brown planthoppers were released to the cup, and the cup was covered and placed in a thermostatic chamber at 25° C. for 6 days, and the survivors were counted for calculation of the insecticidal degree by using Equation 1. The test was carried out by one series system.

Each structure is given as a SMILES string.

Consider `Cc1cc(F)c(-n2nc(C(F)(F)C(F)(F)C(F)(F)F)nc2N)cc1[S+]([O-])CC(F)(F)F` (racemic) [Compound 175], for which the “Nemastatic degree (%)” value in test [1] is 97%.

For the compound `Cc1cc(F)c(-n2nc(C(F)(F)F)nc2NC(=O)C(F)F)cc1[S+]([O-])CC(F)(F)F` (racemic) [Compound 200], in test [2], the “Insecticidal degree (%)” value is 100%.

On to `Cc1cc(F)c(-n2nc(C(F)(F)F)nc2C(N)=O)cc1[S+]([O-])CC(F)(F)F` (racemic) [Compound 208], for which, in test [1], the “Nemastatic degree (%)” value worked out at 100%. Same read-out and setting: the result for `Cc1cc(F)c(-n2nc(C(F)(F)F)nc2N)cc1SCC1CC1` [Compound 3] reads 100%; that for `CSc1nc(N)n(-c2cc(SCC(F)(F)F)c(C)cc2F)n1` [Compound 15], 100%. As to `Cc1cc(F)c(-n2nc([S+](C)[O-])nc2N)cc1SCC(F)(F)F` (stereo not shown) [Compound 17], the “Nemastatic degree (%)” value in test [1] was 99%. Besides, the “Insecticidal degree (%)” value in test [2] amounted to 100%. As for `Cc1cc(F)c(-n2nc(S(C)(=O)=O)nc2N)cc1[S+]([O-])CC(F)(F)F` (stereo not shown) [Compound 20], the “Nemastatic degree (%)” value in test [1] stood at 92%. For the same compound, the “Insecticidal degree (%)” value in test [2] was 100%.

In the case of `CCSc1nc(N)n(-c2cc(SCC(F)(F)F)c(C)cc2F)n1` [Compound 21], the “Nemastatic degree (%)” value in test [1] worked out at 100%. For `CC[S+]([O-])c1nc(N)n(-c2cc(SCC(F)(F)F)c(C)cc2F)n1` (stereo not shown) [Compound 23], the “Nemastatic degree (%)” value in test [1] came out at 100%. Further, in test [2], the “Insecticidal degree (%)” value amounted to 90%.

For the compound `CC[S+]([O-])c1nc(N)n(-c2cc([S+]([O-])CC(F)(F)F)c(C)cc2F)n1` (stereo not shown) [Compound 24], in test [2], the “Insecticidal degree (%)” value turned out to be 90%.

Regarding `CCS(=O)(=O)c1nc(N)n(-c2cc([S+]([O-])CC(F)(F)F)c(C)cc2F)n1` (stereo not shown) [Compound 26], in test [2], the “Insecticidal degree (%)” value came to 90%.

In the case of `Cc1cc(F)c(-n2nc(SC(F)F)nc2N)cc1SCC(F)(F)F` [Compound 27], the “Nemastatic degree (%)” value in test [1] is recorded as 100%. Further, in test [2], the “Insecticidal degree (%)” value was 100%.

Turning to `Cc1cc(F)c(-n2nc(SC(F)(F)F)nc2N)cc1SCC(F)(F)F` [Compound 31], the “Nemastatic degree (%)” value in test [1] was determined as 100%. Also, the “Insecticidal degree (%)” value in test [2] is listed as 100%. Consider `CNc1nc(C(F)(F)F)nn1-c1cc(SCC(F)(F)F)c(C)cc1F` [Compound 39], for which the “Nemastatic degree (%)” value in test [1] amounted to 100%. Besides, in test [2], the “Insecticidal degree (%)” value worked out at 100%. Consider `CCc1nc(N)n(-c2cc(SCC(F)(F)F)c(C)cc2F)n1` [Compound 49], for which the “Insecticidal degree (%)” value in test [2] is given as 100%. For `CCNc1nc(C(F)(F)F)nn1-c1cc(SCC(F)(F)F)c(C)cc1F` [Compound 59], in test [1], the “Nemastatic degree (%)” value was determined as 100%. The “Insecticidal degree (%)” value in test [2] came to 100%. `C#CCNc1nc(C(F)(F)F)nn1-c1cc(SCC(F)(F)F)c(C)cc1F` [Compound 65]: in test [1], the “Nemastatic degree (%)” value came to 100%. Moreover, the “Insecticidal degree (%)” value in test [2] came to 100%.

`CC(=O)Nc1nc(C(F)(F)F)nn1-c1cc(SCC(F)(F)F)c(C)cc1F` [Compound 75]: the “Nemastatic degree (%)” value in test [1] is listed as 94%. Moreover, the “Insecticidal degree (%)” value in test [2] is listed as 100%. With `COC(=O)Nc1nc(C(F)(F)F)nn1-c1cc(SCC(F)(F)F)c(C)cc1F` [Compound 79], in test [1], the “Nemastatic degree (%)” value is reported as 94%. Further, the “Insecticidal degree (%)” value in test [2] was 100%. On to `Cc1cc(F)c(-n2nc(C(F)(F)F)nc2NC(=O)N(C)C)cc1SCC(F)(F)F` [Compound 83], for which the “Insecticidal degree (%)” value in test [2] worked out at 10%. As to `CNc1nc(C(F)(F)F)nn1-c1cc(SCC(F)(F)F)c(C)cc1Cl` [Compound 97], the “Nemastatic degree (%)” value in test [1] is 97%. Regarding `CNc1nc(SC(F)(F)C(F)(F)F)nn1-c1cc(SCC(F)(F)F)c(C)cc1F` [Compound 101], in test [1], the “Nemastatic degree (%)” value is 98%. The “Insecticidal degree (%)” value in test [2] worked out at 100%. Consider `Cc1cc(F)c(-n2nc(C(C)(C)C#N)nc2N)cc1SCC(F)(F)F` [Compound 103], for which the “Nemastatic degree (%)” value in test [1] is on record as 94%. In the case of `Cc1nc(N)n(-c2cc(SCC(F)(F)F)c(C)cc2F)n1` [Compound 105], in test [2], the “Insecticidal degree (%)” value stood at 90%. On to `Cc1cc(F)c(-n2nc(C(C)C)nc2N)cc1SCC(F)(F)F` [Compound 110], for which the “Nemastatic degree (%)” value in test [1] stood at 97%. Regarding `CC(=O)Nc1nc(C(C)(C)C)nn1-c1cc(SCC(F)(F)F)c(C)cc1F` [Compound 112], the “Insecticidal degree (%)” value in test [2] is recorded as 90%. Regarding `CCc1nc(N)n(-c2cc(SCC(F)(F)F)c(C)cc2F)n1` [Compound 116], in test [1], the “Nemastatic degree (%)” value was 97%.

For the compound `Cc1ccc(-n2nc(C(F)(F)F)nc2N)cc1SCC(F)(F)F` [Compound 124], in test [1], the “Nemastatic degree (%)” value is on record as 100%. Moreover, in test [2], the “Insecticidal degree (%)” value is recorded as 100%. `Nc1nc(C(F)(F)F)nn1-c1ccc(Cl)c(SCC(F)(F)F)c1` [Compound 126]: in test [1], the “Nemastatic degree (%)” value worked out at 94%. Turning to `CCN(CC)c1nc(C(F)(F)F)nn1-c1cc(SCC(F)(F)F)c(C)cc1F` [Compound 128], the “Insecticidal degree (%)” value in test [2] is listed as 100%. As for `Cc1cc(F)c(-n2nc(SCC(F)(F)F)nc2N)cc1SCC(F)(F)F` [Compound 130], the “Nemastatic degree (%)” value in test [1] is given as 100%. In the case of `CCC[S+]([O-])c1nc(N)n(-c2cc([S+]([O-])CC(F)(F)F)c(C)cc2F)n1` (stereo not shown) [Compound 137], the “Insecticidal degree (%)” value in test [2] is 100%. `Cc1cc(F)c(-n2nc(SCC#N)nc2N)cc1SCC(F)(F)F` [Compound 140]: the “Nemastatic degree (%)” value in test [1] is reported as 99%.

With `Cc1cc(F)c(-n2nc(SCC#N)nc2N)cc1[S+]([O-])CC(F)(F)F` (stereo not shown) [Compound 141], the “Nemastatic degree (%)” value in test [1] stood at 97%. Also, the “Insecticidal degree (%)” value in test [2] amounted to 100%. As to `CNc1nc(C(F)(F)F)nn1-c1cc(SCC(F)(F)F)c(C)cc1C` [Compound 146], the “Nemastatic degree (%)” value in test [1] is on record as 98%. As to `C#CCSc1nc(N)n(-c2cc(SCC(F)(F)F)c(C)cc2F)n1` [Compound 148], the “Nemastatic degree (%)” value in test [1] turned out to be 99%. Also, the “Insecticidal degree (%)” value in test [2] is given as 100%. As to `C#CC[S+]([O-])c1nc(N)n(-c2cc(SCC(F)(F)F)c(C)cc2F)n1` (stereo not shown) [Compound 150], in test [2], the “Insecticidal degree (%)” value was found to be 100%.

As for `CC(=O)N(C)c1nc(SCC(F)(F)F)nn1-c1cc(SCC(F)(F)F)c(C)cc1F` [Compound 158], the “Insecticidal degree (%)” value in test [2] was found to be 90%. As to `CNc1nc(SCC(F)(F)F)nn1-c1cc(SCC(F)(F)F)c(C)cc1F` [Compound 160], the “Nemastatic degree (%)” value in test [1] is on record as 100%. For the same compound, in test [2], the “Insecticidal degree (%)” value was 100%. For `Cc1cc(F)c(-n2nc(C(F)(F)F)nc2NN)cc1[S+]([O-])CC(F)(F)F` (stereo not shown) [Compound 163], the “Insecticidal degree (%)” value in test [2] came out at 100%. Consider `Cc1cc(F)c(-n2nc(C(F)(F)F)nc2NCC#N)cc1SCC(F)(F)F` [Compound 164], for which, in test [1], the “Nemastatic degree (%)” value was 100%. The “Insecticidal degree (%)” value in test [2] came to 100%.

`Cc1cc(F)c(-n2nc(C(F)(F)F)nc2NCC#N)cc1[S+]([O-])CC(F)(F)F` (stereo not shown) [Compound 165]: the “Insecticidal degree (%)” value in test [2] worked out at 100%.

Turning to `CNC(=O)Nc1nc(C(F)(F)F)nn1-c1cc(SCC(F)(F)F)c(C)cc1F` [Compound 168], in test [1], the “Nemastatic degree (%)” value is on record as 100%. For the same compound, in test [2], the “Insecticidal degree (%)” value is listed as 100%.

`Cc1cc(F)c(-n2nc(C(F)(F)F)nc2N(C)N)cc1SCC(F)(F)F` [Compound 170]: the “Nemastatic degree (%)” value in test [1] was determined as 100%. Moreover, the “Insecticidal degree (%)” value in test [2] was determined as 100%. As for `Cc1cc(F)c(-n2nc(C(F)(F)C(F)(F)C(F)(F)F)nc2N)cc1SCC(F)(F)F` [Compound 174], the “Nemastatic degree (%)” value in test [1] is 100%. Moreover, the “Insecticidal degree (%)” value in test [2] was 90%.

As to `Cc1cc(F)c(-n2nc(SC(F)(F)C(F)(F)F)nc2N)cc1SCC(F)(F)F` [Compound 176], in test [1], the “Nemastatic degree (%)” value was determined as 97%. Moreover, in test [2], the “Insecticidal degree (%)” value came out at 90%. With `Cc1cc(F)c(-n2nc(C(C(F)(F)F)C(F)(F)F)nc2N)cc1SCC(F)(F)F` [Compound 182], the “Nemastatic degree (%)” value in test [1] came to 91%. As for `C#CCNc1nc(SCC(F)(F)F)nn1-c1cc(SCC(F)(F)F)c(C)cc1F` [Compound 184], the “Insecticidal degree (%)” value in test [2] turned out to be 100%. Still for that read-out and setting: the figure for `CCC(=O)Nc1nc(C(F)(F)F)nn1-c1cc(SCC(F)(F)F)c(C)cc1F` [Compound 186] is 100%. On the same count and under the same terms, the result for `Cc1cc(F)c(-n2nc(C(F)(F)F)nc2NC(=O)CCl)cc1SCC(F)(F)F` [Compound 189] reads 100%.

As to `C#CCNc1nc(SC(F)(F)C(F)(F)F)nn1-c1cc(SCC(F)(F)F)c(C)cc1F` [Compound 193], the “Nemastatic degree (%)” value in test [1] was determined as 100%. For the same compound, in test [2], the “Insecticidal degree (%)” value is 100%. As for `Cc1cc(F)c(-n2nc(C(F)(F)F)nc2NC(=O)NC(C)C)cc1SCC(F)(F)F` [Compound 201], the “Insecticidal degree (%)” value in test [2] was determined as 100%. `COC(=O)c1nc(C(F)(F)F)nn1-c1cc(SCC(F)(F)F)c(C)cc1F` [Compound 203]: in test [1], the “Nemastatic degree (%)” value was 92%. `Cc1cc(F)c(-n2nc(C(F)(F)F)nc2C(N)=O)cc1SCC(F)(F)F` [Compound 207]: in test [1], the “Nemastatic degree (%)” value came to 100%. Still for that read-out and setting: the figure for `Cc1cc(F)c(-n2nc(C(F)(F)F)nc2C#N)cc1SCC(F)(F)F` [Compound 209] is 100%.
